According to patent publication US11142515B2, “Pyrazolyl-ureas as kinase inhibitors” (RESPIVERT LIMITED, priority 2014, dated 2021):

Experiments:
[1] = target: T1, p38 MAPKα isoform (MAPK14) (Homo sapiens, UniProt Q16539); assay: p38 MAPKα enzyme inhibition (Z-LYTE FRET); format: biochemical; details: Table 2B, unit inferred; read-out: p38 MAPKα (Enzyme Profile)
T1 construct: purchased Life Technologies
Protocol: (§1) The enzyme inhibitory activities of compounds disclosed herein were determined by FRET using synthetic peptides labelled with both donor and acceptor fluorophores (Z-LYTE, Life Technologies, Paisley, UK).
The inhibitory activities of compounds of the invention against the p38 MAPKα isoform (MAPK14: Life Technologies), were evaluated indirectly by determining the level of activation/phosphorylation of the target peptide of the p38 MAPKα down-stream molecule, MAPKAP-K2. The enzyme (40 ng/mL, 2.5 μL) was incubated with the test compound (2.5 μL of either 40 μg/mL, 12 μg/mL, 4 μg/mL, 1.2 μg/mL, 0.4 μg/mL, 0.12 μg/mL, 0.04 μg/mL, 0.012 μg/mL, 0.004 μg/mL or 0.0012 μg/mL) for 2 h at RT. […] Development reagent (protease, 5 μL) was added for 1 h prior to detection in a fluorescence microplate reader (EnVision, Perkin Elmer, Waltham, Mass., USA).
(§2) In all cases, the site-specific protease cleaves non-phosphorylated peptide only and eliminates the FRET signal. Phosphorylation levels of each reaction were calculated using the ratio of coumarin emission (donor) over fluorescein emission (acceptor), for which low ratios indicate high phosphorylation and high ratios indicate low phosphorylation levels.

p38MAPKγ (MAPK12) = target: T2, p38MAPKγ (MAPK12) (Homo sapiens, UniProt P53778); assay: p38 MAPKγ enzyme inhibition (Z-LYTE FRET); format: biochemical; details: Table 2B, unit inferred; read-out: p38 MAPKγ (Enzyme Profile)
T2 construct: purchased Life Technologies
T2 sequence (P53778 1-367): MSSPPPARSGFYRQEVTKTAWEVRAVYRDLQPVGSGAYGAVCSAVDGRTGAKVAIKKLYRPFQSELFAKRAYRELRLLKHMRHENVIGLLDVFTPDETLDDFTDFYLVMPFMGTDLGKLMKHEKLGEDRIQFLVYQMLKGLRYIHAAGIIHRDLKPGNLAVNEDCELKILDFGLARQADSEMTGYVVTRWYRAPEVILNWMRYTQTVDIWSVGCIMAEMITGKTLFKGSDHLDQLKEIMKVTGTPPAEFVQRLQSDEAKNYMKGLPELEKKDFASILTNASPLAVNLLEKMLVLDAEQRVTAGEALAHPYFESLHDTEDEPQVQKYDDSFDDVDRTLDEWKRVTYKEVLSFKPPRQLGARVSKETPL
Protocol: as §1
The inhibitory activities of compounds of the invention against p38MAPKγ (MAPK12: Life Technologies), were evaluated by determining the level of activation/phosphorylation of the target peptide. The enzyme (800 ng/mL, 2.5 μL) was incubated with the test compound (2.5 μL at either 40 μg/mL, 12 μg/mL, 4 μg/mL, 1.2 μg/mL, 0.4 μg/mL, 0.12 μg/mL, 0.04 μg/mL, 0.012 μg/mL, 0.004 μg/mL or 0.0012 μg/mL) for 2 h at RT. The FRET peptides (8 μM, 2.5 μL), and appropriate ATP solution (2.5 μL, 400 μM) were then added to the enzymes/compound mixtures and incubated for 1 h at RT. Development reagent (protease, 5 μL) was added for 1 h prior to detection in a fluorescence microplate reader (EnVision, Perkin Elmer).
as §2

T1 sequence (Q16539 whole entry, canonical isoform): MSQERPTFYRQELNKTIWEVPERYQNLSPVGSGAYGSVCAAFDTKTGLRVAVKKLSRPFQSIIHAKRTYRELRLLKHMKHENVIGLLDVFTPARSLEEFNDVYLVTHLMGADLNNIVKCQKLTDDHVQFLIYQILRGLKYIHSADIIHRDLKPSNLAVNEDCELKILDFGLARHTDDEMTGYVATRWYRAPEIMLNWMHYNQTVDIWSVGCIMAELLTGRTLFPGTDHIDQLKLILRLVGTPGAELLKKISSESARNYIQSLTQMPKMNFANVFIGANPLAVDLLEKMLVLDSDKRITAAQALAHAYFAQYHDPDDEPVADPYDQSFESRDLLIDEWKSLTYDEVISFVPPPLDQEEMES

IC50 [1] [nM]	IC50 (p38MAPKγ (MAPK12)) [nM]	Compound
8.9	223	COc1ccc(-n2nc(C(C)(C)C)cc2NC(=O)Nc2ccc(OCc3ccnc(Nc4cncc(N(C)C)n4)c3)c3ccccc23)cc1 [Example 104, 1-(3-(tert-butyl)-1-(4-methoxyphenyl)-1H-pyrazol-5-yl)-3-(4-((2-((6-(dimethyl-amino)pyrazin-2-yl)amino)pyridin-4-yl)methoxy)naphthalen-1-yl)urea]
< 1.59	4560	COc1cnc(Nc2cc(COc3ccc(NC(=O)Nc4cc(C(C)(C)C)nn4-c4ccc(C)cc4)c4ccccc34)ccn2)cn1 [Example 105, 1-(3-(tert-butyl)-1-(p-tolyl)-1H-pyrazol-5-yl)-3-(4-((2-((5-methoxypyrazin-2-yl)amino)pyridin-4-yl)methoxy)naphthalen-1-yl) urea]
3.4	401	Cc1ccc(-n2nc(C(C)(C)C)cc2NC(=O)Nc2ccc(OCc3ccnc(Nc4cncc(N)n4)c3)c3ccccc23)cc1 [Example 106, 1-(4-((2-((6-aminopyrazin-2-yl)amino)pyridin-4-yl)methoxy)naphthalen-1-yl)-3-(3-(tert-butyl)-1-(p-tolyl)-1H-pyrazol-5-yl)urea]
27	5730	COCC(=O)Nc1cncc(Nc2cc(COc3ccc(NC(=O)Nc4cc(C(C)(C)C)nn4-c4ccc(C)cc4)c4ccccc34)ccn2)n1 [Example 107, N-(6-((4-(((4-(3-(3-(tert-butyl)-1-(p-tolyl)-1H-pyrazol-5-yl)ureido)naphthalen-1-yl)oxy)methyl)pyridin-2-yl)amino)pyrazin-2-yl)-2-methoxyacetamide]
17	15500	COc1ccc(-n2nc(C(C)(C)C)cc2NC(=O)Nc2ccc(OCc3ccnc(Nc4cncc(OC)n4)c3)c3ccccc23)cc1 [Example 108, 1-(3-(tert-butyl)-1-(4-methoxyphenyl)-1H-pyrazol-5-yl)-3-(4-((2-((6-methoxypyrazin-2-yl)amino)pyridin-4-yl)methoxy)naphthalen-1-yl)urea]
115	1330	COc1cncc(Nc2cc(COc3ccc(NC(=O)Nc4cc(C(C)(C)C)nn4-c4ccc(C)s4)c4ccccc34)ccn2)n1 [Example 109, 1-(3-(tert-butyl)-1-(5-methylthiophen-2-yl)-1H-pyrazol-5-yl)-3-(4-((2-((6-methoxypyrazin-2-yl)amino)pyridin-4-yl)methoxy)naphthalen-1-yl) urea]
1.6	23	COc1cncc(Nc2cc(COc3ccc(NC(=O)Nc4cc(C(C)(C)C)nn4-c4ccc(CO)cc4)c4ccccc34)ccn2)n1 [Example 110, 1-(3-(tert-butyl)-1-(4-(hydroxymethyl)phenyl)-1H-pyrazol-5-yl)-3-(4-((2-((6-methoxypyrazin-2-yl)amino)pyridin-4-yl)methoxy)naphthalen-1-yl) urea]
33	125	Cc1ccc(-n2nc(C(C)(C)C)cc2NC(=O)Nc2ccc(OCc3ccnc(Nc4cncc(N(C)C)n4)c3)c3ccccc23)s1 [Example 111, 1-(3-(tert-butyl)-1-(5-methylthiophen-2-yl)-1H-pyrazol-5-yl)-3-(4-((2-((6-(dimethylamino)pyrazin-2-yl)amino)pyridin-4-yl)methoxy)naphthalen-1-yl)urea]
43	277	Cc1cc(-n2nc(C(C)(C)C)cc2NC(=O)Nc2ccc(OCc3ccnc(Nc4cncc(N(C)C)n4)c3)c3ccccc23)cs1 [Example 112, 1-(3-(tert-butyl)-1-(5-methylthiophen-3-yl)-1H-pyrazol-5-yl)-3-(4-((2-((6-(dimethylamino)pyrazin-2-yl)amino)pyridin-4-yl)methoxy)naphthalen-1-yl) urea]
37	3200	COc1cncc(Nc2cc(COc3ccc(NC(=O)Nc4cc(C(C)(C)C)nn4-c4csc(C)c4)c4ccccc34)ccn2)n1 [Example 113, 1-(3-(tert-butyl)-1-(5-methylthiophen-3-yl)-1H-pyrazol-5-yl)-3-(4-((2-((6-methoxypyrazin-2-yl)amino)pyridin-4-yl)methoxy)naphthalen-1-yl) urea]
2	26	CN(C)c1cncc(Nc2cc(COc3ccc(NC(=O)Nc4cc(C(C)(C)C)nn4-c4ccc(CO)cc4)c4ccccc34)ccn2)n1 [Example 114, 1-(3-(tert-butyl)-1-(4-(hydroxymethyl)phenyl)-1H-pyrazol-5-yl)-3-(4-((2-((6-(dimethylamino)pyrazin-2-yl)amino)pyridin-4-yl)methoxy)naphthaien-1-yl)urea]
7.5	725	CN(C)c1cncc(Nc2cc(COc3ccc(NC(=O)Nc4cc(C(C)(C)C)nn4-c4ccc(O)cc4)c4ccccc34)ccn2)n1 [Example 115, 1-(3-(tert-butyl)-1-(4-hydroxyphenyl)-1H-pyrazol-5-yl)-3-(4-((2-((6-(dimethyl-amino)pyrazin-2-yl)amino)pyridin-4-yl)methoxy)naphthalen-1-yl)urea]

Further lines, the compound ahead of its results:

Compound	IC50 [1] [nM]	IC50 (p38MAPKγ (MAPK12)) [nM]
COCc1ccc(-n2nc(C(C)(C)C)cc2NC(=O)Nc2ccc(OCc3ccnc(Nc4cnccn4)c3)c3ccccc23)cc1 [Example 64]	9.7	39
CO[C@@H]1CCN(C(=O)c2cnc(Nc3cc(COc4ccc(NC(=O)Nc5cc(C(C)(C)C)nn5-c5ccc(C)cc5)c5ccccc45)ccn3)cn2)C1 [Example 66]	28	319
CO[C@H]1CCN(C(=O)c2cnc(Nc3cc(COc4ccc(NC(=O)Nc5cc(C(C)(C)C)nn5-c5ccc(C)cc5)c5ccccc45)ccn3)cn2)C1 [Example 67]	39	345
Cc1ccc(-n2nc(C(C)(C)C)cc2NC(=O)Nc2ccc(OCc3ccnc(Nc4cncc(C(C)C)n4)c3)c3ccccc23)cc1 [Example 68]	132	624
Cc1cccc(-n2nc(C(C)(C)C)cc2NC(=O)Nc2ccc(OCc3ccnc(Nc4cnc(C(=O)N5CC[C@@H](O)C5)cn4)c3)c3ccccc23)c1 [Example 69]	8	106
CCc1cncc(Nc2cc(COc3ccc(NC(=O)Nc4cc(C(C)(C)C)nn4-c4ccc(C)c(OC)c4)c4ccccc34)ccn2)n1 [Example 70]	70	372
COCc1cccc(-n2nc(C(C)(C)C)cc2NC(=O)Nc2ccc(OCc3ccnc(Nc4cnc(C(=O)N5CCCC5)cn4)c3)c3ccccc23)c1 [Example 71]	24	272
Cc1ccc(-n2nc(C(C)(C)C)cc2NC(=O)Nc2ccc(OCc3ccnc(Nc4cnc(C(=O)NCCC(C)(C)O)cn4)c3)c3ccccc23)cc1 [Example 72]	11	118
COCCN(CCOC)C(=O)c1cnc(Nc2cc(COc3ccc(NC(=O)Nc4cc(C(C)(C)C)nn4-c4ccc(C)cc4)c4ccccc34)ccn2)cn1 [Example 73]	19	259
COC(C)(C)CNC(=O)c1cnc(Nc2cc(COc3ccc(NC(=O)Nc4cc(C(C)(C)C)nn4-c4ccc(C)cc4)c4ccccc34)ccn2)cn1 [Example 74]	43	482
CC(C)(C)c1cc(NC(=O)Nc2ccc(OCc3ccnc(Nc4cnccn4)c3)c3ccccc23)n(-c2ccccc2)n1 [Example 75]	17	179
COCCN(CCOC)C(=O)c1cnc(Nc2cc(COc3ccc(NC(=O)Nc4cc(C(C)(C)C)nn4-c4cccc(C)c4)c4ccccc34)ccn2)cn1 [Example 76]	15	148
CN(C)c1ccc(-n2nc(C(C)(C)C)cc2NC(=O)Nc2ccc(OCc3ccnc(Nc4cnccn4)c3)c3ccccc23)cn1 [Example 78]	21	422
Cc1ccc(-n2nc(C(C)(C)C)cc2NC(=O)Nc2ccc(OCc3ccnc(Nc4cnc(C(=O)NCCN5CCCCC5)cn4)c3)c3ccccc23)cc1 [Example 79]	< 0.4	101
Cc1ccc(-n2nc(C(C)(C)C)cc2NC(=O)Nc2ccc(OCc3ccnc(Nc4cnc(C(=O)NC5CCN(C)CC5)cn4)c3)c3ccccc23)cc1 [Example 80]	< 0.41	54
